Series [1] can be described thus: Growth inhibition of human WI38 cells after 48 hrs by CCK8 assay. It is filed as cell-based. The conditions noted are these: WI-38, 48 h. For orientation: Tetrazolium dyes change colour on reduction, which living cells bring about.
The test system of series [2] is MV4-11. Briefly: Growth inhibition of human MV4-11 cells harboring FLT3-ITD after 48 hrs by CCK8 assay. The class given is functional, cell-based. The conditions noted are these: MV4-11, 48 h.
Series [3] addresses AMP-activated protein kinase, AMPK (Homo sapiens) (UniProt P54646+O43741+P54619+Q9UGJ0+Q9Y478+Q13131+Q9UGI9). Briefly: Inhibition of human N-terminal GST-tagged AMPKalpha1 (1 to 550 residues)/beta1 (1 to 270 residues)/gamma1 (1 to 331 residues) expressed in baculovirus expression system using fluorescence labelled SAMS peptide substrate at 50 times IC50 by electrophoretic mobility shift assay relative to control. On the technique in general: Mobility shift assays separate free from complexed probe on a gel.

The target of series [4] is Receptor-type tyrosine-protein kinase FLT3 (Homo sapiens) (UniProt P36888). Nature of the series: Inhibition of FLT3 autophosphorylation at Tyr-596 in human MV4-11 cells after 1.5 hrs by Western blot analysis. It is filed as cell-based.
For series [5], the system named is MV4-11. Nature of the series: Induction of apoptosis in human MV4-11 cells at 0.17 to 17 uM after 48 hrs by annexin V/propidium iodide staining based flow cytometry. It is filed as functional, cell-based.
In another series the target is CYP2C9 (Homo sapiens, UniProt P11712). Briefly: Inhibition of human CYP2C9 at 10 uM relative to control. It is filed as ADME.
Another series concerns the target CYP1A2 (Homo sapiens, UniProt P05177). Briefly: Inhibition of human recombinant CYP1A2 using CEC as substrate at 10 uM after 30 mins by fluorimetry relative to control. The class given is ADME. Particulars: recombinant CYP1A2, probe CEC.
A further series deals with CYP2C19 (Homo sapiens, UniProt P33261). Nature of the series: Inhibition of human CYP2C19 at 10 uM relative to control. The class given is ADME.
The target in the next series is CYP2D6 (Homo sapiens, UniProt P10635). Briefly: Inhibition of human CYP2D6 at 10 uM relative to control. It is filed as ADME.
A further series concerns the target CYP3A4 (Homo sapiens, UniProt P08684). Briefly: Inhibition of human recombinant CYP3A4 at 10 uM by fluorimetry relative to control. It is filed as ADME.
Series [6] can be described thus: Aqueous solubility in pH 7.4 PBS buffer at 200 uM after 24 hrs by UV-visible HPLC based shake flask method. The class given is physicochemical. Particulars: PBS buffer pH 7.4, pH 7.4.
Series [7] is described as follows: Metabolic stability in human liver microsomes assessed as parent compound remaining at 1 uM after 1 hr. It is filed as ADME. Particulars: read-out: Stability. (In general: Liver microsomes are vesicles of endoplasmic reticulum, rich in cytochrome P450 enzymes.)
Series [8] in a line: Permeability from apical to basolateral side in human Caco2 cells at 10 uM after 60 mins by HPLC-MS/MS analysis. It is filed as ADME, cell-based. The conditions noted are these: Caco-2, read-out: permeability.
The target of series [9] is High affinity nerve growth factor receptor (Homo sapiens, UniProt P04629). Briefly: Inhibition of human N-terminal GST-tagged TRKA cytoplasmic domain (436 to 790 residues) expressed in baculovirus expression system using fluorescence labelled CSKtide as substrate by electrophoretic mobility shift assay.
The target of series [10] is Mitogen-activated protein kinase kinase kinase kinase 4 (Homo sapiens, UniProt O95819). Briefly: Inhibition of human N-terminal GST-tagged HGK catalytic domain (1 to 328 residues) expressed in baculovirus expression system using fluorescence labelled moesin-derived peptide substrate by electrophoretic mobility shift assay.
Series [11] is filed under the species Homo sapiens. Nature of the series: Selectivity ratio of IC50 for human N-terminal GST-tagged TRKA cytoplasmic domain (436 to 790 residues) expressed in baculovirus expression system to IC50 for human N-terminal GST-tagged FLT3 cytoplasmic domain (564 to 993 residues) expressed in baculovirus expression system.
Series [12] is filed under the species Homo sapiens. Nature of the series: Selectivity ratio of IC50 for human N-terminal GST-tagged HGK catalytic domain (1 to 328 residues) expressed in baculovirus expression system to IC50 for human N-terminal GST-tagged FLT3 cytoplasmic domain (564 to 993 residues) expressed in baculovirus expression system.

≈ marks a conversion by molar mass, not a printed value. Calls of active or inactive are those of the source. The calls are words filed in the database; no cut-off is given here.

Mitogen-activated protein kinase kinase kinase kinase 4, sequence (O95819 whole entry, the tested form may be a part): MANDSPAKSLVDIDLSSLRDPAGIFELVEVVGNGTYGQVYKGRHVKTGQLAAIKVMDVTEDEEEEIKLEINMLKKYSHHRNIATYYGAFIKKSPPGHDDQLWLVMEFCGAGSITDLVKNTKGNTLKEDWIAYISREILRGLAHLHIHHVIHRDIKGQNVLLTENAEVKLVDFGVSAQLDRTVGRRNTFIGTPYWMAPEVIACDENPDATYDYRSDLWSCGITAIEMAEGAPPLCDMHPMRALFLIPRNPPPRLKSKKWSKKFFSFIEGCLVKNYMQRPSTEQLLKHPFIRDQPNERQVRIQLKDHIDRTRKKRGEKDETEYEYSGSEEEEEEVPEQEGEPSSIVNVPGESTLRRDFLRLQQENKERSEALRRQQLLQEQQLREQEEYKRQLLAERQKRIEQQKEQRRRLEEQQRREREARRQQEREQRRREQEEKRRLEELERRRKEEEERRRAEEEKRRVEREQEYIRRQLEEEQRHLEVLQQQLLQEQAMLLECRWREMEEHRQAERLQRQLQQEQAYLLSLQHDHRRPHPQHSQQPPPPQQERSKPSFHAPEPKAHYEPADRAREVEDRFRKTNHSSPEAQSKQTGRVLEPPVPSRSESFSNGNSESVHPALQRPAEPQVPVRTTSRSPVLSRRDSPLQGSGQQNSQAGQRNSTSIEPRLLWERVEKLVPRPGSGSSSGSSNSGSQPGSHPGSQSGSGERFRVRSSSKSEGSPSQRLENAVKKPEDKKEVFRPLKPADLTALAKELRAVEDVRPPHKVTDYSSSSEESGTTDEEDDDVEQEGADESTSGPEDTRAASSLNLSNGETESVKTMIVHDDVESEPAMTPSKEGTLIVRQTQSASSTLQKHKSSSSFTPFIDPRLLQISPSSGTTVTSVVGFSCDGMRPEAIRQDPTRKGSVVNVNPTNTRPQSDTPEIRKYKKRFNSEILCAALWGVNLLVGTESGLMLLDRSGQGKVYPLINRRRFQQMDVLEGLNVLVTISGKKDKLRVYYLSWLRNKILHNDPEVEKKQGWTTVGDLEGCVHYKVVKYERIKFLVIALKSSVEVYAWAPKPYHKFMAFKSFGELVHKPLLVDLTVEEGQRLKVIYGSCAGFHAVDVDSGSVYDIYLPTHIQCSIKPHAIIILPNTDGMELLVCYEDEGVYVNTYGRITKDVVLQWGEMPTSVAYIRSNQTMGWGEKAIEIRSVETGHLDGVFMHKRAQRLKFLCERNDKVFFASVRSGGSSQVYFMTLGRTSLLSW
CYP3A4, sequence (P08684 whole entry): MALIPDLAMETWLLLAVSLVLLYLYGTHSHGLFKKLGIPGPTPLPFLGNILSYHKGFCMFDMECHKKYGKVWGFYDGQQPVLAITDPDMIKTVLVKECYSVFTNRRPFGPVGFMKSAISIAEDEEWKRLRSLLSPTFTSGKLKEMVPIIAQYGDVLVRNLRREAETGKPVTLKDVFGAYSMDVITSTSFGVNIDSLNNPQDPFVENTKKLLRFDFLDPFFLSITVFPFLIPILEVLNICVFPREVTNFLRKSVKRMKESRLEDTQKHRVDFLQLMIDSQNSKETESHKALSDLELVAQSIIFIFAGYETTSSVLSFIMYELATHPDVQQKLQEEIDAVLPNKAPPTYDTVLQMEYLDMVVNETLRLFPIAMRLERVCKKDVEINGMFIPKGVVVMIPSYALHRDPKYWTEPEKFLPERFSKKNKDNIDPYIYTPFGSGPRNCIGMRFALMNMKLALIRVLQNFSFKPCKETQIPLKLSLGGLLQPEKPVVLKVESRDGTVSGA
CYP2C19, sequence (P33261 whole entry): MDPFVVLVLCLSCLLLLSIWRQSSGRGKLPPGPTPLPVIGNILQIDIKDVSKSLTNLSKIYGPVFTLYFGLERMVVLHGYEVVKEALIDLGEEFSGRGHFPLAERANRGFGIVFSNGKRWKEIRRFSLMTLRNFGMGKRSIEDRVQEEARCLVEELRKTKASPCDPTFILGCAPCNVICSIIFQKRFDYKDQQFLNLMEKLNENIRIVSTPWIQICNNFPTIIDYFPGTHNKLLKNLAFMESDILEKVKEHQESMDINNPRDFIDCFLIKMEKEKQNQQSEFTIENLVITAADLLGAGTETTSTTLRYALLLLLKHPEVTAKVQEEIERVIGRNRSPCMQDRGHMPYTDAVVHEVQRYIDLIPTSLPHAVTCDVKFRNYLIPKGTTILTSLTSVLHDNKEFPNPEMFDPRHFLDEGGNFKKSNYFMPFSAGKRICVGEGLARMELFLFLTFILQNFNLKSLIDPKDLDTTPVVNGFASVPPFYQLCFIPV
CYP2C9, sequence (P11712 whole entry): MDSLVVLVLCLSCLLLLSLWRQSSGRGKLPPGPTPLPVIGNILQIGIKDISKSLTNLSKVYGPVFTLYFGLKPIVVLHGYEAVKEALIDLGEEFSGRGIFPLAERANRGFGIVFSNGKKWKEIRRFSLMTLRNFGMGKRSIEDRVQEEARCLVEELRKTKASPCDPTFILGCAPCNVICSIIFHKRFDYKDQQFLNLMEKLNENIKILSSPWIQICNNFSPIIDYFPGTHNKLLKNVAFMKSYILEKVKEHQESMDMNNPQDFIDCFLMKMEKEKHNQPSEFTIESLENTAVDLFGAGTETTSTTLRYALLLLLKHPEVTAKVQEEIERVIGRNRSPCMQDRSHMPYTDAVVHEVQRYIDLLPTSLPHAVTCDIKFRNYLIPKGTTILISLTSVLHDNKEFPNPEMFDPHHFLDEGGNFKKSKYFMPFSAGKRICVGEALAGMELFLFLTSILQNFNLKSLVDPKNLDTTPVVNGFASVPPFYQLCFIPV
CYP1A2, sequence (P05177 whole entry): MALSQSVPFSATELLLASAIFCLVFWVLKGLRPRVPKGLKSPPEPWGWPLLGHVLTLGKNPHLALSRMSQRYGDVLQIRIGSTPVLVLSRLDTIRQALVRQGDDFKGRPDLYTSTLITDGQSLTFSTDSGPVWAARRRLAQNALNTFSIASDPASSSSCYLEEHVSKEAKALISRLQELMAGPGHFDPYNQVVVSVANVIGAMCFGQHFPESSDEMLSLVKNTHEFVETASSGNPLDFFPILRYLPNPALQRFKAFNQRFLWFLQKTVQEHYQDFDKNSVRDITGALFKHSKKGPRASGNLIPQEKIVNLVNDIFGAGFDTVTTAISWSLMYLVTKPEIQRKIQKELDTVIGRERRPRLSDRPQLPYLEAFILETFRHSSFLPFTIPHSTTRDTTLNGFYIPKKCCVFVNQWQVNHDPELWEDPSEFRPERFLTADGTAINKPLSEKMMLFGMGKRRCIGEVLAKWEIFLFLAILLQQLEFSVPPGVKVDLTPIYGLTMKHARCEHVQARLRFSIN
CYP2D6, sequence (P10635 whole entry): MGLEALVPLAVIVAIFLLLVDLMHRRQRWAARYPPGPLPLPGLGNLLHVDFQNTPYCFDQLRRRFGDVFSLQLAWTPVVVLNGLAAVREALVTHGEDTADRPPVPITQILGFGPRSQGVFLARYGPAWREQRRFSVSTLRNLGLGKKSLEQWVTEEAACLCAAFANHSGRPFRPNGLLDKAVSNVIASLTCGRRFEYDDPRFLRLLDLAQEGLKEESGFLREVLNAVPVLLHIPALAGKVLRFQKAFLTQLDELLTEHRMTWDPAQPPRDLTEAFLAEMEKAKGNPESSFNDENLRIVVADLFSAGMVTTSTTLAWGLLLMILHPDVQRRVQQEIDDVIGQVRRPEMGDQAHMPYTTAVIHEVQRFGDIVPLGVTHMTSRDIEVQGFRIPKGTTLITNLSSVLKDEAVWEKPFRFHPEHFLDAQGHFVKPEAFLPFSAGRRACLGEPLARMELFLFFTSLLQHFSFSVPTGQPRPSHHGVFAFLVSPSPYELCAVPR
Receptor-type tyrosine-protein kinase FLT3 (Homo sapiens), sequence (P36888 whole entry): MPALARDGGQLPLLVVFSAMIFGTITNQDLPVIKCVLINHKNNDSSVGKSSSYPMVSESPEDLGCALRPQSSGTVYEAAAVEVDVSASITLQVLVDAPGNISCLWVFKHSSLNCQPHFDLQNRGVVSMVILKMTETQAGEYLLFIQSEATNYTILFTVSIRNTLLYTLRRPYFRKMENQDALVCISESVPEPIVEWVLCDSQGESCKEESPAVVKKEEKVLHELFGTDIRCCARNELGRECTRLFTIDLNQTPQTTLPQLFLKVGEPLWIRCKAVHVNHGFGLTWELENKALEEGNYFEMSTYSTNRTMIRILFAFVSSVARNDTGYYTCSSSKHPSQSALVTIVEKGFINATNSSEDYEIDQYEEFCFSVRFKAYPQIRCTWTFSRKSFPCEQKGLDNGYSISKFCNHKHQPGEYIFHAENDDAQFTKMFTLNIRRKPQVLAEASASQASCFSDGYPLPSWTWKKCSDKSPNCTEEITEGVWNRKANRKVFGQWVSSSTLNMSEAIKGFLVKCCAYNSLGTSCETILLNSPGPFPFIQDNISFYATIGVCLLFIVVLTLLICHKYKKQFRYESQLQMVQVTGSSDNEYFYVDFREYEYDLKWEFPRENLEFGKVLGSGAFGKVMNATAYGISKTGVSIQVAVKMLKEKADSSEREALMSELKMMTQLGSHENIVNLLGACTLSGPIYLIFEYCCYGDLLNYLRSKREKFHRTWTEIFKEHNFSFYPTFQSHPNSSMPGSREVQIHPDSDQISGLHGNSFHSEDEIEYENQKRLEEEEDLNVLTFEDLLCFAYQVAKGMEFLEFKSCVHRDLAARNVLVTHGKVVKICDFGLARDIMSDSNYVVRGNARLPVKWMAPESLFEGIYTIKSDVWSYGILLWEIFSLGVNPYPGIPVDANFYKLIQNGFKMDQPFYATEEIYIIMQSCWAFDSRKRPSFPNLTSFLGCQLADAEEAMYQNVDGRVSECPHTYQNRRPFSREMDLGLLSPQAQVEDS

Take `O=C(Nc1ccccc1)c1n[nH]c2ccccc12`: the IC50 in [1] is more than 10000 nM; in the series on MV4-11 [2], 7700 nM. Besides, the inhibition in series [3] stood at 46%.
As for `O=C(Nc1ccc(C(=O)N2CCN(c3ccccc3)CC2)cc1)c1n[nH]c2ccccc12`, in series [3], the inhibition was determined as 18%.
`O=C(Nc1ccc(CN2CCN(c3ccccc3)CC2)cc1)c1n[nH]c2ccccc12`: the inhibition result in [4] is “Dose-dependent effect”; in series [3], 9.2%. The half-maximal inhibitory concentration (IC50) in [1] is more than 10000 nM; in the series with MV4-11 [2], 164 nM; in series [9], 137 nM; in series [10], 410 nM. Besides, the result with MV4-11 [5] was Active. Further, the inhibition at 10 µM came to 36% against CYP2C9, 57% against CYP2C19, 62% against CYP2D6 and 48% at CYP3A4. Also, on CYP1A2, the inhibition at 0.5 h, 10 µM was determined as 36%. The compound also had a thermodynamic solubility at 24 h, 200 µM in series [6] of 3 µM (≈ 1.23 µg/mL). Moreover, in series [7], the remaining at 1 h, 1 µM came out at 50%. Moreover, the Papp A→B at 1 h, 10 µM in series [8] stood at 4 ×10⁻⁶ cm/s. Besides, the Ratio IC50 in the series filed under Homo sapiens [11] turned out to be 15; in the series filed under Homo sapiens [12] it was 45.

In general, IC50 refers to the concentration that gives 50% inhibition. One may read the inhibition as the drop in the measured response relative to a control, in per cent. For orientation: thermodynamic solubility means the concentration in solution at equilibrium with solid.

For the origin of these results see ChEMBL document CHEMBL3792292, “Development of a potent and selective FLT3 kinase inhibitor by systematic expansion of a non-selective fragment-screening hit” (Bioorg Med Chem Lett, 2016).
